Columns and labels:
[1] = test system: DSS induced colitis; assay: 6-MP in DSS induced colitis over one month; type: in vivo, mice; conditions: large doses of 6-MP
From the text: This discovery was particularly unexpected as these mice lack the ability to form TGNs (the active metabolites) through the conventional metabolic route in the liver and leukocytes. However, formation of the active metabolite was discovered outside the generally understood mechanism. The magnitude of the reduction in disease activity was similar to that found in wild-type mice in which colitis had been induced with DSS. […] Conversion of the related thiopurine, 6-MP, to 6-TGTP was considerably less over the same period consistent with rate-limiting IMPDH in the purine salvage pathway of bacteria.

[2] = test system: Escherichia coli, Enterococcus faecalis and Bacteroides thetaiotamicron; assay: Bacterial conversion to thioguanine nucleotides (6-TGN) in vitro; type: in vitro ADME; conditions: log phase cultures of all three strains, 1 mM, 120 minutes
Protocol: Bacterial metabolism of 6-TG was investigated in vitro using the representative gut bacteria Escherichia coli, Enterococcus faecalis and Bacteroides thetaiotamicron. […] In contrast, generation of 6-TGN was minimal over this time period when cultures were incubated with 1 mM 6-MP.

[3] = test system: Salmonella typhimurium (SL1344) in HeLa cells; assay: Bacterial replication assay
[4] = test system: RaW and Winnie mice; assay: Colitis in Winnie and RaW (Rag-/- x Winnie) mice; type: in vivo
From the text: (§1) The vehicle control was water.
T and B lymphocytes are not required for the occurrence of spontaneous colitis in Winnie mice. Winnie x Rag^−/− (RaW) mice are Winnie mice that lack T and B lymphocytes. RaW mice spontaneously develop a colitis phenotype with more proximal disease than Winnie [Eri, R D et al; Mucosal. Immunol. 4, 354-364 (2011)].

[5] = test system: C57B1/6 WT mice (chronic DSS induced colitis); assay: Chronic DSS-induced colitis in C57Bl/6 WT mice; type: in vivo
Protocol: as §1
Dextran sodium sulphate (DSS) (36-50 kDa; MP Biochemicals) was administered in the drinking water chronically [0.5% (w/v) for 4 cycles of 5 days on, followed by either 7 or 9 days off].

[6] = test system: Winnie mice (spontaneous colitis)
Protocol: All the animal experiments were approved by the University of Queensland Animal Ethics Committee. C57B1/6 wild-type (WT) mice were purchased from the Animal Resource Authority, Western Australia and the Hprt^−/−, Winnie and RaW were bred in-house in a pathogen free animal facility. […] 6-MP (MW 170, 6-MP monohydrate, ex Sigma-Aldrich) was dissolved in water. The vehicle control was water.
For DSS induced colitis in Hprt^−/− mice the composite disease activity index (DAI) score was used and this comprised diarrhoea, rectal bleeding and body weight percent loss subscores (0<1% loss; 1=1-5% loss; 2=5-15% loss; 3>15% loss).

[7] = test system: HeLa cells expressing LC3-GFP infected with SL1344; assay: Antibacterial autophagy assay; type: cell-based; conditions: 6-TG 50 μM
Protocol: Briefly HeLa cells were plated in 12-well plates containing 18 mm glass coverslips at a density of 1×10^5 cells per well in DMEM 24 hours before infections. Cells were treated with TG or mock treated with DMSO for 16 hours prior to infection. S. enterica serovar Typhimurium SL1344 carrying a DsRed2 expression plasmid was grown overnight in Luria-Bertani broth containing 100 μg/mL carbenicillin at 37° C. with aeration and subcultured at a dilution of 1/33 for a further 3 h in Luria-Bertani carbenicillin broth. This culture was further diluted in DMEM 10% serum without antibiotics to yield a multiplicity of infection (MOI) of 100 and added to HeLa LC3-GFP cells. Infections were allowed to proceed for 20 minutes and the cells were washed once in complete medium containing 100 μg/mL gentamicin sulfate and then incubated in fresh high gentamicin medium for an additional 40 minutes. […] Slides were viewed for counting under wide-field fluorescence illumination with a 60× lens (Olympus). The fraction of LC3-GFP-positive bacteria per cell was assessed in randomly chosen fields with at least 90 cells counted for each condition. Bacteria were scored as within autophagosomes only when a complete and closely conforming LC3-GFP “capsule” was visible.

[8] = test system: Hprt−/− mice (DSS induced colitis); assay: Chronic DSS induced colitis in Hprt-/- mice
[9] = test system: Winnie mice (spontaneous colitis); assay: Spontaneous colitis in Winnie mice, daily gavage up to 14 days; type: in vivo
From the text: as §1
Both the colitis and its improvement with treatment [FIGS. 2A and 2(B)] were more marked in the distal colon (DC) of the Winnie mice.

[10] = test system: Winnie mice (spontaneous colitis); assay: Spontaneous colitis in Winnie mice, low dose gavage 28 days; type: in vivo
From the text: as §1

[11] = test system: primary fibroblasts isolated from WT and Hprt−/− mice; assay: Autophagy (LC3-II/β-actin) in primary fibroblasts; type: cell-based
Protocol: HeLa, HCT116, HT29, HepG2 and RAW cells were obtained from ATCC and grown in DMEM supplemented with GlutaMAX (Life Technologies), 10% fetal calf serum and 20 μg/ml penicillin/streptomycin. HeLa cells stably expressing LC3-GFP have been described previously (Kabeya Y et al., The EMBO Journal, 2000, 19 (2), 5720-5728; Birmingham C L et al, J. Biol. Chem., 2006, 281 (16), […]). Primary fibroblasts isolated from WT and Hprt^−/− mice were generated from ear punch samples after dissociation with trypsin and cultured in DMEM supplemented with Glutamax and 20% fetal calf serum with antibiotics and passaged up to four times to ensure that they were axenic.
Following treatment cells were treated with TNN (Tris-HCl, NaCl, NP40) lysis buffer. […] Following transfer to PVDF membranes (Invitrogen), detection was performed using rabbit anti-LC3 primary (Sigma), mouse anti-Actin (Sigma) and appropriate fluorescent secondary antibodies (LI-COR Biosciences) and imaged on a LICOR fluorescent imaging system.

[12] = PC and DC of RaW mice and Winnie controls, 6-TG 2.5 mg/kg
[13] = RaW and Winnie mice, 6-TG 2.5 mg/kg up to 14 days
[14] = WT mice 0.5% DSS, 6-TG 0.5 mg/kg gavage 28 days

For `Sc1ncnc2nc[nH]c12` [Formulation 6-MP, 3,7-dihydropurine-6-thione], the colitis [1] was “no reduction in colitis” and the “6-TGN (6-TGMP, 6-TGDP and 6-TGTP) generation in bacterial pellets” value [2] was “minimal”.
In the case of `Nc1nc2nc[nH]c2c(=S)[nH]1` [Formulation 6-TG, 2-amino-6,7-dihydro-3H-purine-6-thione], the “intracellular replication of the bacteria (luminescence)” value ([3]; HeLa cells, 50 or 100 μM 6-TG, 12 h post infection) is reported as “significantly decreased intracellular replication”, the “bacterial growth (OD 600 absorbance)” value ([3]; over the 12 h period) is reported as “did not alter bacterial growth” and the Muc2 expression [4, 12] is reported as “increased Muc2 expression”. The “inflammation (Ifn-γ, Il-1b)” value [4, 12] was “decreased inflammation”, the “blinded histological PC and DC colitis scores” value [4, 13] was “improved blinded histological PC and DC colitis scores” and the goblet cell morphology [4, 13] was “restored goblet cell morphology”. For the same molecule, the “DSS colitis, total colitis scores, immune and epithelial damage subscores” value [5, 14] was “improved with 6-TG”, the colon weight [5, 14] was “significantly improved” and the combined diarrhoea score [5, 14] was “significantly improved”. For the same molecule, the “peripheral white blood cells” value ([5]; WT mice DSS-treated and untreated, 6-TG 0.5 mg/kg gavage 28 days) was “decreased peripheral white blood cells”, the body weight gain ([5]; juvenile C57B1/6 WT mice, irrespective of DSS, 6-TG 0.5 mg/kg) was “reduction of expected body weight gain” and the “6-TGN (6-TGMP, 6-TGDP and 6-TGTP) generation in bacterial pellets” value [2] was “found in the bacterial pellets”. The “colitis in mid-colon or proximal colon” value ([6]; intra-rectal 1 mg/kg daily 14 days) was “no improvement”, the “blinded histological scoring of the distal colon” value ([6]; intra-rectal 1 mg/kg daily 14 days, P<0.01) was “striking improvement” and the combined diarrhea score ([6]; intra-rectal 1 mg/kg daily, from day 11, vs 6-MP and vehicle) was “statistically significant improvement”. The “LC3 co-localization with intracellular bacteria” value [7] was “significantly increased LC3 co-localization”, the disease activity ([8]; Hprt−/− mice, 0.5% DSS, 6-TG 0.5 mg/kg oral gavage day 28 to 52) was “rapid and appreciable reduction in disease activity” and the immunosuppression ([8]; Hprt−/− mice, 6-TG 0.5 mg/kg oral gavage) was “not associated with immunosuppression”. For the same molecule, the MLN cell counts ([8]; Hprt−/− mice, DSS, 6-TG 0.5 mg/kg) was “not depressed by 6-TG”, the “CD3e+CD4+, CD11b+ and CD11c+MHCII+ subset numbers in the MLN” value ([8]; untreated or DSS exposed Hprt−/− mice, 6-TG 0.5 mg/kg) was “not decreased” and the “spontaneous colitis (histological colitis)” value ([9]; 6-TG 1-2.5 mg/kg daily gavage up to 14 days) was “ameliorated the spontaneous colitis in a dose-dependent manner”. For the same molecule, the “pharmacodynamic effect (time to improved colonic histology)” value ([9]; oral and intra-rectal TG, 1 or 2.5 mg/kg/day) was “less than two weeks”, the “blinded histological colitis scores PC and DC” value ([10]; 6-TG 0.5 mg/kg/d) was “improved blinded histological colitis scores in both PC and DC” and the “combined diarrhoea (diarrhoea and rectal bleeding) score” value ([10]; 6-TG 0.5 mg/kg/d or 6-MP 2.5 mg/kg/d) was “improved with 6-TG”. The peripheral blood leukocytes ([10]; 6-TG 0.5 mg/kg/d or 6-MP 2.5 mg/kg/d, P=0.09) was “tended to reduce peripheral blood leukocytes”.
With `CCC(=O)N1CCN(c2ccc(-n3c(=O)ccc4cnc5ccc(-c6cnc7ccccc7c6)cc5c43)cc2C(F)(F)F)CC1` [Torin1] the autophagy induction [11] was “autophagy could be induced”.

Source: patent US12109214B2, “Formulation and treatment methods” (PRODRUGXTEND PTY LTD, priority 2015, dated 2024)
